As a reminder, the fraction remaining is the share of the starting amount still present when the sample was taken.

Where a SMILES comes first, the peptide text is derived from it. Where no end group is shown, it is not given here. [ ]: non-standard residue; d: D form.

The test system of data set [1] is histamine release. Put plainly: Histamine release in rats, plasma histamine ELISA. As to conditions: co-administration of lodoxamide (0.6 mg/kg). On the technique in general: ELISA stands for enzyme-linked immunosorbent assay.
Protocol: Histamine levels were quantified by using commercially available histamine ELISA assay kit (Histamine ELISA-H1531-K01, Eagle Bioscience). The plates were coated with the plasma samples (50 ul/well) incubated for 60 minutes at room temperature on an orbital shaker with medium frequency. Then 100 ul of enzyme conjugate was added to the wells and incubated for 20 minutes at room temperature. […] The reaction was stopped with 100 ul H2SO4. Absorbance was determined on an ELISA plate reader at 450 nm.
Blood samples were taken at pre-injection and at 0, 1, 2.5, 5, 10, 15, 30- and 60-minutes post dose and used for histamine levels quantification using commercially available kit.
In data set [2] the test system is plasmin. Put plainly: 10 ug/mL plasmin. The note with it: up to 45 minutes.
A short description of data set [3]: MTD studies and renal toxicity in rats (creatinine, BUN). As to conditions: rats, addition of sodium benzoate (NA-3+SB).
Data set [4] has as its system plasmin. Put plainly: peptides in PBS challenged with 10 ug/ml plasmin. The note with it: 37 C, up to 30 minutes.
The target of data set [5] is T1, plasmin (Homo sapiens, UniProt P00747). Put plainly: Plasmin sensitivity: peptides in PBS challenged with 10 ug/ml plasmin, HPLC. The note with it: 10 ug/mL plasmin, 45 minutes (FIG. 29).
T1 sequence (P00747 581-810 limits assumed, species assumed): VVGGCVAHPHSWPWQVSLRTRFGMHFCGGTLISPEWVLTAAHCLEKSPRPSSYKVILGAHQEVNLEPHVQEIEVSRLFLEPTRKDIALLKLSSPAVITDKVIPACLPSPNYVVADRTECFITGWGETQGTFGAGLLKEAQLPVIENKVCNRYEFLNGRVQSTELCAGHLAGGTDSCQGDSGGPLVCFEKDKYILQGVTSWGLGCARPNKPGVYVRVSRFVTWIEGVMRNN
T1 sequence (P00747 97-580 partner limits assumed, species assumed): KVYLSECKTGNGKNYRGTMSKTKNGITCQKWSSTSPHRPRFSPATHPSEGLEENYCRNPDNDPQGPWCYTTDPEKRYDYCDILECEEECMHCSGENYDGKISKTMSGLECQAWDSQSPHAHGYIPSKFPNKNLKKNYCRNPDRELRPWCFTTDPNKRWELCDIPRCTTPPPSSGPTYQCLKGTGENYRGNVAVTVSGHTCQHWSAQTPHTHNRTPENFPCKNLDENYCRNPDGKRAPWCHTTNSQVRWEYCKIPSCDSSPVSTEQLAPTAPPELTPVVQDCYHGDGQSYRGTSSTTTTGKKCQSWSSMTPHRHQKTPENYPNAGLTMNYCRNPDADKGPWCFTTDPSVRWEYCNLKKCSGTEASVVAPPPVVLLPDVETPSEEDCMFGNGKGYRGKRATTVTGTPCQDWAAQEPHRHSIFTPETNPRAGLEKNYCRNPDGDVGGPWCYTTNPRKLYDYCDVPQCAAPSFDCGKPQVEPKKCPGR
The target in data set [6] is T1, plasmin. Nature of the data set: in vitro. The note with it: isolated enzyme plasmin.
Data set [7] deals with PSD95PDZ2 (Homo sapiens, UniProt P78352). Put plainly: Competitive ELISA with biotinylated-NA-1. The note with it: PSD-95 domain 2, FIG. 12.
Sequence of PSD95PDZ2 (P78352 160-246 limits assumed): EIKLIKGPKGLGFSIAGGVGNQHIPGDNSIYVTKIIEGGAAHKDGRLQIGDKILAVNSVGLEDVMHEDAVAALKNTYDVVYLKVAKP
Data set [8] can be described thus: Pharmacokinetic analysis in rats (subcutaneous, pulmonary instillation, intravenous, intramuscular), HPLC.
Protocol: Rats were anaesthetized in the supine position (Isoflurane 1.5--%) and allowed to breath spontaneously in 0.5 L/min 02. The left femoral artery was cannulated for blood sampling.
Test agents were prepared at the stablish concentration in a total volume of vehicle. Pulmonary instillation was performed by intubation with a 14G catheter connected to a 1 cc syringe and the test agent will be delivered through the catheter. Subcutaneous (SQ or SC) injection was injected into the area of the left flank, no more than 2 ml of total volume per site.
Each dose was evaluated in 3 rats for each administration strategy. […] For the first experiment, evaluating two different administration routes (SQ and PI), blood samples were collected at 8 different timepoints: Pre and at 7 additional times (1, 2.5, 5, 10, 15, 30, 60 min) post dose (250 ul/sample).
HPLC quantification: Plasma was separated from blood and stored at −−−80° C. until used. […] Standard curves for HPLC were generated from plasma samples spiked with known quantities of test agent.

On to `N#Cc1cc(NC(=O)C(=O)O)c(Cl)c(NC(=O)C(=O)O)c1` [lodoxamide, 2-[2-chloro-5-cyano-3-(oxaloamino)anilino]-2-oxoacetic acid, reference compound], for which the “effect on histamine induced by D-Tat-L-2B9C at 7.6 mg/kg IV” value in data set [1] is “abrogated”.
For RKkRrQrrRIESDV, in data set [2], the not cleaved result is recorded as “no degradation observed in 45 minutes”.
For the molecule `O=C([O-])c1ccccc1.[Na+]` [sodium benzoate, reference compound], the “effect on creatinine and BUN levels induced by 25 mg/kg NA-3” value in data set [3] was “reduces the creatinine and BUN levels”.
On to “YGrKKRrQrRRkLSSIESDV (YG[dR]KKR[dR]Q[dR]RR[dK]LSSIESDV)”, for which the not cleaved entry in data set [4] is given as “essentially 100% intact peptide after 30 minutes”.
Regarding “YGRKkRRqRRrKLSSIESDV (YGRK[dK]RR[dQ]RR[dR]KLSSIESDV)”, the not cleaved entry in data set [4] is “essentially 100% intact peptide after 30 minutes”.
In the case of `CC[C@H](C)[C@H](NC(=O)[C@H](CCCNC(=N)N)NC(=O)[C@@H](CCCNC(=N)N)NC(=O)[C@@H](CCCNC(=N)N)NC(=O)[C@H](CCC(N)=O)NC(=O)[C@@H](CCCNC(=N)N)NC(=O)[C@H](CCCNC(=N)N)NC(=O)[C@@H](CCCCN)NC(=O)[C@H](CCCCN)NC(=O)[C@@H](N)CCCNC(=N)N)C(=O)N[C@@H](CCC(=O)O)C(=O)N[C@@H](CO)C(=O)N[C@@H](CC(=O)O)C(=O)N[C@H](C(=O)O)C(C)C` [NoNO 414, RKkRrQrrRIESDV] (HELM PEPTIDE1{R.K.[dK].R.[dR].Q.[dR].[dR].R.I.E.S.D.V}$$$$V2.0), the plasmin resistance result in data set [5] is reported as “resistance to plasmin”.
In the case of `CC[C@H](C)[C@H](NC(=O)[C@H](CO)NC(=O)[C@H](CO)NC(=O)[C@H](CC(C)C)NC(=O)[C@H](CCCCN)NC(=O)[C@@H](CCCNC(=N)N)NC(=O)[C@H](CCCNC(=N)N)NC(=O)[C@H](CCCNC(=N)N)NC(=O)[C@H](CCC(N)=O)NC(=O)[C@@H](CCCNC(=N)N)NC(=O)[C@H](CCCNC(=N)N)NC(=O)[C@H](CCCCN)NC(=O)[C@H](CCCCN)NC(=O)[C@@H](CCCNC(=N)N)NC(=O)CNC(=O)[C@@H](N)Cc1ccc(O)cc1)C(=O)N[C@@H](CCC(=O)O)C(=O)N[C@@H](CO)C(=O)N[C@@H](CC(=O)O)C(=O)N[C@H](C(=O)O)C(C)C` [NA-4.4.1] (HELM PEPTIDE1{Y.G.[dR].K.K.R.[dR].Q.R.R.[dR].K.L.S.S.I.E.S.D.V}$$$$V2.0; N-terminus and C-terminus assumed), the fraction remaining at 0.5 h, 65 ug/ml in data set [6] was roughly 100%.
Regarding rKKRrQrRRIESDV, the not cleaved result in data set [2] is given as “no degradation observed in 45 minutes”.
As for “RkkrrQrRrIESDV (HELM PEPTIDE1{R.[dK].[dK].[dR].[dR].Q.[dR].R.[dR].I.E.S.D.V}$$$$V2.0; N-terminus and C-terminus assumed; SMILES CC[C@H](C)[C@H](NC(=O)[C@@H](CCCNC(=N)N)NC(=O)[C@H](CCCNC(=N)N)NC(=O)[C@@H](CCCNC(=N)N)NC(=O)[C@H](CCC(N)=O)NC(=O)[C@@H](CCCNC(=N)N)NC(=O)[C@@H](CCCNC(=N)N)NC(=O)[C@@H](CCCCN)NC(=O)[C@@H](CCCCN)NC(=O)[C@@H](N)CCCNC(=N)N)C(=O)N[C@@H](CCC(=O)O)C(=O)N[C@@H](CO)C(=O)N[C@@H](CC(=O)O)C(=O)N[C@H](C(=O)O)C(C)C)”, the not cleaved result in data set [2] was “no degradation observed in 45 minutes”.
On to `CC[C@H](C)[C@H](NC(=O)[C@@H](CCCNC(=N)N)NC(=O)[C@H](CCCNC(=N)N)NC(=O)[C@@H](CCCNC(=N)N)NC(=O)[C@H](CCC(N)=O)NC(=O)[C@@H](CCCNC(=N)N)NC(=O)[C@@H](CCCNC(=N)N)NC(=O)[C@@H](CCCCN)NC(=O)[C@@H](CCCCN)NC(=O)[C@@H](N)CCCNC(=N)N)C(=O)N[C@@H](CCC(=O)O)C(=O)N[C@@H](CO)C(=O)N[C@@H](CC(=O)O)C(=O)N[C@H](C(=O)O)C(C)C` [NoNO 411, RkkrrQrRrIESDV] (HELM PEPTIDE1{R.[dK].[dK].[dR].[dR].Q.[dR].R.[dR].I.E.S.D.V}$$$$V2.0; N-terminus and C-terminus assumed), for which the plasmin resistance entry in data set [5] is “resistance to plasmin”.
For “YGrKKRrQRRrKLSSIESDV (YG[dR]KKR[dR]QRR[dR]KLSSIESDV)”, the not cleaved result in data set [4] is reported as “essentially 100% intact peptide after 30 minutes”.
On to `CC[C@H](C)[C@H](NC(=O)[C@H](CCCNC(=N)N)NC(=O)[C@H](CCCNC(=N)N)NC(=O)[C@@H](CCCNC(=N)N)NC(=O)[C@H](CCC(N)=O)NC(=O)[C@@H](CCCNC(=N)N)NC(=O)[C@H](CCCNC(=N)N)NC(=O)[C@H](CCCCN)NC(=O)[C@H](CCCCN)NC(=O)[C@H](N)CCCNC(=N)N)C(=O)N[C@@H](CCC(=O)O)C(=O)N[C@@H](CO)C(=O)N[C@@H](CC(=O)O)C(=O)N[C@H](C(=O)O)C(C)C` [NoNO 415, rKKRrQrRRIESDV] (HELM PEPTIDE1{[dR].K.K.R.[dR].Q.[dR].R.R.I.E.S.D.V}$$$$V2.0), for which, in data set [5], the plasmin resistance result was “resistance to plasmin”.
Regarding `CC[C@@H](C)[C@@H](NC(=O)[C@@H](CO)NC(=O)[C@@H](CO)NC(=O)[C@@H](CC(C)C)NC(=O)[C@@H](CCCCN)NC(=O)[C@@H](CCCNC(=N)N)NC(=O)[C@@H](CCCNC(=N)N)NC(=O)[C@@H](CCCNC(=N)N)NC(=O)[C@@H](CCC(N)=O)NC(=O)[C@@H](CCCNC(=N)N)NC(=O)[C@@H](CCCNC(=N)N)NC(=O)[C@@H](CCCCN)NC(=O)[C@@H](CCCCN)NC(=O)[C@@H](CCCNC(=N)N)NC(=O)CNC(=O)[C@H](N)Cc1ccc(O)cc1)C(=O)N[C@H](CCC(=O)O)C(=O)N[C@H](CO)C(=O)N[C@H](CC(=O)O)C(=O)N[C@@H](C(=O)O)C(C)C` [D-NA-1, ygrkkrrqrrrklssiesdv] (HELM PEPTIDE1{[dY].G.[dR].[dK].[dK].[dR].[dR].[dQ].[dR].[dR].[dR].[dK].[dL].[dS].[dS].[dI].[dE].[dS].[dD].[dV]}$$$$V2.0), the “EC50 (compared between peptides)” value in data set [7] is reported as “about ten-fold lower”. Also, the “plasma concentration and plasma exposure relative to intrapulmonary NA-1” value in data set [8] (pulmonary instillation) is “higher plasma concentration and a greater plasma exposure”. In addition, in data set [8] (subcutaneous 25 mg/kg), the “AUC compared with subcutaneous NA-1” value is “increased Cmax and AUC relative to subcutaneous NA-1 but not to the same extent”; the “Cmax compared with subcutaneous NA-1” value is “increased Cmax and AUC relative to subcutaneous NA-1 but not to the same extent”.
In the case of `CC[C@H](C)[C@H](NC(=O)[C@H](CO)NC(=O)[C@H](CO)NC(=O)[C@H](CC(C)C)NC(=O)[C@H](CCCCN)NC(=O)[C@@H](CCCNC(=N)N)NC(=O)[C@H](CCCNC(=N)N)NC(=O)[C@H](CCCNC(=N)N)NC(=O)[C@@H](CCC(N)=O)NC(=O)[C@H](CCCNC(=N)N)NC(=O)[C@H](CCCNC(=N)N)NC(=O)[C@@H](CCCCN)NC(=O)[C@H](CCCCN)NC(=O)[C@H](CCCNC(=N)N)NC(=O)CNC(=O)[C@@H](N)Cc1ccc(O)cc1)C(=O)N[C@@H](CCC(=O)O)C(=O)N[C@@H](CO)C(=O)N[C@@H](CC(=O)O)C(=O)N[C@H](C(=O)O)C(C)C` [NA-411.4] (HELM PEPTIDE1{Y.G.R.K.[dK].R.R.[dQ].R.R.[dR].K.L.S.S.I.E.S.D.V}$$$$V2.0; N-terminus and C-terminus assumed), the share remaining at 0.5 h, 65 ug/ml in data set [6] was roughly 100%.

For the origin of these results see patent publication US20240301003A1 (NoNO Inc., priority 2021, published 2024).
